Assay results taken from the NIST ThermoML archive (doi:10.1021/je101361u).
Numbers after ± are expanded uncertainties.

Assay: xn = mol fraction of the nth substance listed
Conditions: 101.3 kPa, Liquid, Vibrating tube method

COCCOCCOC [2,5,8-trioxanonane] + ClCCCl
mass density [kg/m3]
Conditions	308.15 K	313.15 K	318.15 K	323.15 K	328.15 K	333.15 K
x2 = 0.0252	–	928.2 ± 0.25	923.14 ± 0.25	918.07 ± 0.25	912.99 ± 0.25	907.88 ± 0.25
x2 = 0.0508	–	932.81 ± 0.24	927.72 ± 0.24	922.62 ± 0.24	917.5 ± 0.24	912.36 ± 0.24
x2 = 0.0751	–	937.26 ± 0.24	932.15 ± 0.24	927.01 ± 0.24	921.85 ± 0.24	916.68 ± 0.24
x2 = 0.1	–	941.89 ± 0.23	936.74 ± 0.23	931.58 ± 0.23	926.39 ± 0.23	921.19 ± 0.23
x2 = 0.1502	–	951.65 ± 0.22	946.43 ± 0.22	941.2 ± 0.22	935.95 ± 0.22	930.67 ± 0.22
x2 = 0.1999	–	961.71 ± 0.22	956.42 ± 0.22	951.12 ± 0.22	945.79 ± 0.22	940.45 ± 0.22
x2 = 0.25	–	972.4 ± 0.21	967.04 ± 0.21	961.66 ± 0.21	956.26 ± 0.21	950.83 ± 0.21
x2 = 0.3002	–	983.61 ± 0.2	978.16 ± 0.2	972.68 ± 0.2	967.18 ± 0.2	961.67 ± 0.2
x2 = 0.3501	–	995.21 ± 0.2	989.69 ± 0.2	984.14 ± 0.2	978.56 ± 0.2	972.96 ± 0.2
x2 = 0.4	1013.05 ± 0.2	1007.46 ± 0.2	1001.83 ± 0.19	996.19 ± 0.19	990.53 ± 0.19	984.84 ± 0.19
x2 = 0.45	1025.99 ± 0.2	1020.29 ± 0.2	1014.56 ± 0.2	1008.81 ± 0.2	1003.05 ± 0.19	997.27 ± 0.19
x2 = 0.5003	1039.78 ± 0.21	1033.98 ± 0.21	1028.16 ± 0.2	1022.31 ± 0.2	1016.44 ± 0.2	1010.54 ± 0.2
x2 = 0.5499	1054.03 ± 0.22	1048.12 ± 0.21	1042.19 ± 0.21	1036.25 ± 0.21	1030.26 ± 0.2	1024.25 ± 0.2
x2 = 0.5999	1069.2 ± 0.22	1063.17 ± 0.22	1057.13 ± 0.22	1051.05 ± 0.21	1044.95 ± 0.21	1038.81 ± 0.21
x2 = 0.6501	1085.36 ± 0.23	1079.21 ± 0.23	1073.04 ± 0.23	1066.84 ± 0.22	1060.6 ± 0.22	1054.34 ± 0.22
x2 = 0.7	1102.36 ± 0.24	1096.08 ± 0.24	1089.77 ± 0.24	1083.44 ± 0.23	1077.08 ± 0.23	1070.67 ± 0.23
x2 = 0.75	1120.21 ± 0.25	1113.78 ± 0.25	1107.32 ± 0.25	1100.83 ± 0.24	1094.32 ± 0.24	1087.77 ± 0.24
x2 = 0.8	1139.52 ± 0.27	1132.93 ± 0.26	1126.31 ± 0.26	1119.65 ± 0.26	1112.98 ± 0.26	1106.28 ± 0.25
x2 = 0.8499	1159.94 ± 0.28	1153.19 ± 0.28	1146.4 ± 0.28	1139.57 ± 0.27	1132.71 ± 0.27	1125.84 ± 0.27
x2 = 0.9	1181.94 ± 0.3	1175 ± 0.29	1168.02 ± 0.29	1160.99 ± 0.29	1153.95 ± 0.28	1146.89 ± 0.28
x2 = 0.925	1193.47 ± 0.31	1186.42 ± 0.31	1179.34 ± 0.31	1172.21 ± 0.3	1165.08 ± 0.3	1157.9 ± 0.29
x2 = 0.9494	1205.37 ± 0.32	1198.22 ± 0.32	1191.02 ± 0.31	1183.78 ± 0.31	1176.54 ± 0.31	1169.26 ± 0.3
x2 = 0.975	1218.05 ± 0.33	1210.78 ± 0.32	–	–	–	–
